Measured values reported in ChEMBL document CHEMBL1201862, “PubChem BioAssay data set” (2004).
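Results reflect a 48-hour exposure of cells in 96-well plates to compound at five concentrations. Abbreviation: GI50, concentration required for 50% inhibition of growth.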 The source made the active and inactive calls. Rule as the data show it: active = GI50 up to about 1.1 µM and inactive = higher.

Assays:
Experiment in all cases: NCI anticancer screen, dose series, 48 h
[1] = test system: HOP-62
[2] = test system: NCI-H23
[3] = test system: HL-60
[4] = test system: HT-29
[5] = test system: UACC-257
[6] = test system: SNB-75
[7] = test system: HCC 2998
[8] = test system: CCRF-CEM
[9] = test system: NCI-H522
[10] = test system: M14
[11] = test system: EKVX
[12] = test system: OVCAR-8
[13] = test system: SF-268
[14] = test system: TK-10
[15] = test system: MOLT-4
[16] = test system: IGROV-1
[17] = test system: SF-539

Measured: GI50

O=C(O)c1cc(S(=O)(=O)N/N=C\c2c3ccccc3[n+]([O-])c3ccccc23)ccc1O
inactive: [1] 7.48 µM | [2] 8.04 µM | [3] 4.07 µM | [4] 19.5 µM | [5] 26.1 µM | [6] 2.58 µM | [7] 6.97 µM | [8] 8.57 µM | [9] 8.3 µM | [10] 17.1 µM | [11] 44.4 µM | [12] 12.7 µM | [13] 11.7 µM | [14] 17.8 µM | [15] 3.8 µM | [16] 22.1 µM

C=CCOC(C)n1c(C)c(Br)c(=O)[nH]c1=O (stereo not drawn)
inactive: [2] > 100 µM | [3] > 100 µM | [4] > 100 µM | [5] > 100 µM | [6] > 100 µM | [7] > 100 µM | [8] > 100 µM | [9] > 100 µM | [11] > 100 µM | [12] > 100 µM | [17] > 100 µM | [13] > 100 µM | [14] > 100 µM | [15] > 100 µM | [16] > 100 µM

N#CC1(CCCCl)CCCCC1
inactive: [2] > 100 µM | [3] > 100 µM | [4] > 100 µM | [5] > 100 µM | [6] 32.4 µM | [7] > 100 µM | [8] > 100 µM | [9] > 100 µM | [10] > 100 µM | [11] > 100 µM | [12] > 100 µM | [17] > 100 µM | [13] > 100 µM | [14] > 100 µM | [15] > 100 µM | [16] > 100 µM

NC(CCCNCc1ccccc1)C(=O)O (stereo not drawn)
inactive: [1] > 100 µM | [2] > 100 µM | [3] > 100 µM | [4] > 100 µM | [5] > 100 µM | [6] > 100 µM | [8] > 100 µM | [9] > 100 µM | [10] > 100 µM | [11] > 100 µM | [12] > 100 µM | [17] > 100 µM | [13] > 100 µM | [14] > 100 µM | [15] > 100 µM | [16] > 100 µM

O=C1c2ccccc2C(=O)C1C(c1ccc(F)cc1)C1C(=O)c2ccccc2C1=O
inactive: [1] > 100 µM | [2] > 100 µM | [3] 37.8 µM | [4] > 100 µM | [5] > 100 µM | [6] 55 µM | [7] > 100 µM | [8] 43 µM | [9] > 100 µM | [10] > 100 µM | [11] > 100 µM | [12] > 100 µM | [17] > 100 µM | [13] > 100 µM | [14] > 100 µM | [15] 59.4 µM

CC1=Nn2c(nnc2-c2ccc(N)cc2)NC(C)(C)C1
inactive: [1] > 100 µM | [2] > 100 µM | [3] > 100 µM | [4] > 100 µM | [5] > 100 µM | [7] > 100 µM | [8] > 100 µM | [9] > 100 µM | [10] > 100 µM | [11] > 100 µM | [17] > 100 µM | [13] > 100 µM | [14] > 100 µM | [15] > 100 µM | [16] > 100 µM

CCCCCCCCCCn1cccc1/C=C/c1ccc(/C=C/c2cccn2CCCCCCCCCC)cc1
inactive: [1] > 100 µM | [2] > 100 µM | [3] > 100 µM | [4] > 100 µM | [5] > 100 µM | [6] > 100 µM | [7] > 100 µM | [8] > 100 µM | [9] > 100 µM | [10] > 100 µM | [11] > 100 µM | [12] > 100 µM | [17] > 100 µM | [13] > 100 µM | [14] > 100 µM | [16] > 100 µM

COc1ccc(Nc2nc3cc(C(F)(F)F)ccc3nc2-c2ccccc2)cc1OC
inactive: [1] 2.74 µM | [2] 25.7 µM | [4] 46.7 µM | [5] 27.2 µM | [6] 28.4 µM | [7] > 100 µM | [8] 82.6 µM | [9] 30 µM | [10] 38.6 µM | [11] 17.3 µM | [12] 25.8 µM | [17] 39.5 µM | [13] 38 µM | [14] 15 µM | [15] > 100 µM | [16] 24.9 µM

Cc1cc(C)nc(NS(=O)(=O)c2ccc(Nc3c4ccccc4nc4c(C(=O)Nc5ccc(S(=O)(=O)Nc6cc(C)on6)cc5)ccc(Cl)c34)cc2)n1
inactive: [1] 21.5 µM | [2] 20.3 µM | [4] 23.4 µM | [5] 28.9 µM | [6] 31.7 µM | [7] 17.3 µM | [8] 21.8 µM | [9] 21.5 µM | [10] 20.1 µM | [11] 25.5 µM | [12] 26.4 µM | [17] 21.5 µM | [13] 27.2 µM | [14] 76 µM | [15] 19.5 µM

O=C(O)CCNCCCCNCCC(=O)O
inactive: [1] > 100 µM | [2] > 100 µM | [3] > 100 µM | [4] > 100 µM | [6] > 100 µM | [7] > 100 µM | [8] > 100 µM | [9] > 100 µM | [10] > 100 µM | [11] > 100 µM | [12] > 100 µM | [17] > 100 µM | [13] > 100 µM | [14] > 100 µM | [15] > 100 µM | [16] > 100 µM

CCOC1=C2N=C(Cc3ccccc3F)N=C2C(=O)c2ccccc21
inactive: [1] > 100 µM | [2] > 100 µM | [3] > 100 µM | [4] > 100 µM | [5] > 100 µM | [6] 90.8 µM | [7] > 100 µM | [8] > 100 µM | [9] > 100 µM | [10] > 100 µM | [11] > 100 µM | [12] > 100 µM | [17] > 100 µM | [13] > 100 µM | [15] > 100 µM

COc1ccc(C=C(c2ccc(OCc3ccccc3)cc2)c2ccc(OCc3ccccc3)cc2)cc1
inactive: [1] > 100 µM | [2] > 100 µM | [3] > 100 µM | [4] > 100 µM | [5] > 100 µM | [6] > 100 µM | [7] > 100 µM | [9] > 100 µM | [10] > 100 µM | [11] > 100 µM | [12] > 100 µM | [17] > 100 µM | [13] > 100 µM | [14] > 100 µM | [16] > 100 µM

O=C(Nc1cc(Cl)c(Cl)cc1Cl)C(=O)C(C(=O)c1ccccc1)C1OC(=O)c2ccccc21 (stereo not drawn)
inactive: [1] > 100 µM | [2] > 100 µM | [3] > 100 µM | [4] > 100 µM | [5] > 100 µM | [6] 17.9 µM | [7] > 100 µM | [8] > 100 µM | [9] > 100 µM | [10] > 100 µM | [11] > 100 µM | [12] > 100 µM | [13] > 100 µM | [14] > 100 µM | [15] > 100 µM | [16] > 100 µM
